Patent publication US10786505B2, “Administration of NEDD8-activating enzyme inhibitor and chemotherapeutic agents” (Millennium Pharmaceuticals, Inc., priority 2013, dated 2020)

How the values were obtained:
HCT116 = assay: In vitro cell viability combination assay (CellTiter-Glo); details: agent combined with MLN4924, vehicle PBS, 48 hr
Method: (§7) General Method: Cells are grown in their respective growth media, supplemented with 10% fetal bovine serum unless otherwise noted. […] A portion of each plate is used for positive controls (no agent is added), while another portion of each plate is used for negative controls (no cells are added). Viability is assessed with CellTiter-Glo® Cell Viability reagent used according to manufacturer's instructions (Promega). Luminescence is measured using a LEADseeker imaging system (GE Healthcare).
(§8) The viability data is normalized separately for each plate by scaling the data so that the median of the negative controls is 0 and the median of the positive controls is 100. More formally,
(§9) [formula] where Vi is the normalized viability of the i^th well, Ui is the raw viability measurement, median (U) is the median of the negative controls, and median (U+) is the median of the positive controls. After normalization, the controls are discarded.
(§10) where E1, E2, E3, E4, I1, I2, I3, S1, S2, S3, and S4 are parameters, CA and CB are the respective concentrations of agents A and B, and V is the normalized viability measurement. It is assumed that the error values are independent and identically distributed normal random variables.
(§11) The Combination Index is computed based on an isobologram, which is a slice of the dose response surface with constant viability. For the present analysis, the 50% isobologram, which is the dose contour that has 50% viability, is used. […] Since the choice of (DA, DB) can be arbitrary, the constraint DA/DB=EC50A/EC50B is used.
(§12) In such cases, Nonlinear Blending can be used as an alternative measure of synergy or additivity. Nonlinear Blending is found by considering a slice of the dose response surface that intersects both concentration axes and runs parallel to the viability axis. Let VA and VB be the viability where the slice intersects the drug A and B axes, respectively. Let Vmax and Vmin be the maximum and minimum viabilities along the slice. Let NLBS=min(VA,VB)−Vmin NLBA=Vmax−max(VA,VB) Define the Nonlinear Blending value to be NLBS if NLBS>NLBA and −NLBA otherwise.
(§13) After completing the analysis of individual plates, the results are combined across the replicates. For a given measure and a set of replicates, the overall mean and standard error are computed using weighted averaging. A null mean, which corresponded to an additive effect, is then compared with the overall mean. The null mean is 1 for the Combination Index and 0 for Nonlinear Blending. Next, a two sized Z-test is performed based on the estimated mean and standard error. This produces a p-value for each measure and each cell line.
(§14) After computing the mean, standard error, and p-value for each set of replicates, these values require interpretation. Thus, a standard procedure is used to produce a classification (synergy, additivity, subadditivity, antagonism, or inconclusive) in each case. If the Combination Index exists for more than half of the replicates, then these measures are used to make the classification.
(§15) Consider the case where the Combination Index is used to make the classification. If the p-value is greater than 0.05, the estimate for the Combination Index is not statistically different from 1. However, if the standard error is also very large, then the estimate is too uncertain to be informative. […] Otherwise, the classification is “Additivity”. When the p-value is less than 0.05, the estimate for the Combination Index is statistically different from 1. However, if the mean is still close to 1, then the difference is not of practical significance. Thus, the result is classified based on the mean. A mean in the range (0.8, 1.2) is considered close enough to 1 to be classified as Additivity. A mean in the range (0, 0.8) is considered low enough to be classified as Synergy. […] The threshold value of 2 can be derived from the definition of the Combination Index.

NCI-H82 = assay: as above; details: agent combined with MLN4924, vehicle DMSO, 96 hr
Method: as §7, §8, §9, §10, §11, §12, §13, §14, §15

LXFE409 xenograft model = assay: Combination of docetaxel or carboplatin and MLN4924 in LXFE409 xenograft model; type: in vivo, mice; details: LXFE409 xenograft; 50 mg/kg carboplatin QW IP
Method: LXFE409 squamous non small cell lung cancer tumor fragments are implanted into the subcutaneous space in the flank of female NMRI nu/nu mice (5-7 weeks, Janvier Labs, Saint Berthevin, France).
(§1) Docetaxel (Henry Schein, Inc., Pittsburgh Pa., Qilu Pharmaceutical Co., Ltd., Jinan, Shandong, China, and Sanofi-Aventis) is formulated in 0.9% saline and administered by intravenous injection (IV) once weekly (QW) at 5 mg/kg or 10 mg/kg.
(§2) Carboplatin (CARBOplatin Injection, Hospira, Inc., Qilu Pharmaceutical Co., Ltd. Jinan, Shandong, China, and Teva Gry-Pharma GmbH, Ulm, Germany) is formulated in 0.9% saline and administered by IP injection once weekly (QW) at 50 mg/kg. The once weekly schedule is also described as every 7 days (Q7D).
(§3) Tumors are measured twice weekly using a vernier caliper. Tumor volumes are calculated using standard procedures (0.5×(length×width^2)). […] Tumor size and body weight are measured approximately twice a week for the duration of the study. Mice are euthanized when their tumor volume reached 10% of their body weight, or when the average tumor volume of a treatment or control group reached approximately 2000 mm^3. Tumor growth continued to be monitored after the dosing period in some studies. Average tumor volume is reported as a function of time for selected groups of selected studies in Figures A, B, and C.
(§4) Measurements from day 0 to 18, 21 or 22 are analyzed as specified in Tables 4-9. All tumor volumes have a value of 1 added to them before log10 transformation. For each animal, the log tumor volume at day 0 is subtracted from the log tumor volume on the subsequent days. This difference vs. time is used to calculate an area under the curve (AUC) for each animal using the trapezoid rule. […] The synergy score for the combination of agents A and B is defined as 100*(mean(AUCAB)−mean(AUCA)−mean(AUCB)+mean(AUCctl))/mean(AUCctl): where AUCAB, AUCA, AUCB, and AUCctl are the AUC values for animals in the combination group, the A group, the B group, and the control group, respectively. The standard error of the synergy score is computed based on the variation in the AUC values among the animals. […] If the P-value is above 0.05, then the combination is considered to be additive. If the P-value is below 0.05, and the synergy score is less than zero, then the combination is considered to be synergistic. […] Otherwise, the combination is classified as antagonistic.

NCI-H526 = assay: In vitro cell viability combination assay (CellTiter-Glo); details: agent combined with MLN4924, vehicle DMSO, 96 hr
Method: as §7, §8, §9, §10, §11, §12, §13, §14, §15

NCI-H209 = assay: as above; details: agent combined with MLN4924, vehicle DMSO, 96 hr
Method: as §7, §8, §9, §10, §11, §12, §13, §14, §15

LU1143 xenograft model = assay: Combination of docetaxel or carboplatin and MLN4924 in LU1143 xenograft model; type: in vivo, mice; details: 50 mg/kg carboplatin QW IP
Method: as §1, §2, §3
Measurements from day 0 to 18, 21 or 22 are analyzed as specified in Tables 4-9. All tumor volumes have a value of 1 added to them before log10 transformation. For each animal, the log tumor volume at day 0 is subtracted from the log tumor volume on the subsequent days. This difference vs. time is used to calculate an area under the curve (AUC) for each animal using the trapezoid rule. […] The synergy score for the combination of agents A and B is defined as 100*(mean(AUCAB)−mean(AUCA)−mean(AUCB)+mean(AUCctl))/mean(AUCctl): where AUCAB, AUCA, AUCB, and AUCctl are the AUC values for animals in the combination group, the A group, the B group, and the control group, respectively. The standard error of the synergy score is computed based on the variation in the AUC values among the animals. […] If the P-value is above 0.05, then the combination is considered to be additive. […]

NCI-H69 xenograft model = assay: Combination of carboplatin and MLN4924 in NCI-H69 xenograft model; type: in vivo, mice
Method: NCI-H69 or NCI-H82 small cell lung tumor fragments (30- to 40-mg) are implanted into the subcutaneous space in the area of the right flank of NCr nu/nu mice (7-10 weeks, Charles River Laboratories, Inc, Frederick Md. or Wilmington, Mass.) using a 12-gauge trocar.
as §2, §3, §4

SK-MES-1 = assay: In vitro cell viability combination assay (CellTiter-Glo); type: cell-based; details: agent combined with MLN4924, vehicle PBS, 72 hr
Description: (§5) After normalization, the controls are discarded.
(§6) Otherwise, the classification is “Additivity”.

NCI-H1299 = assay: as above; type: cell-based; details: agent combined with MLN4924, vehicle PBS, 72 hr
Description: as §5, §6

LK-2 = assay: as above; type: cell-based; details: agent combined with MLN4924, vehicle PBS, 72 hr
Description: as §5, §6

NCI-H69 = assay: as above; type: cell-based; details: agent combined with MLN4924, vehicle DMSO, 96 hr
Description: as §5, §6

CALU-1 = assay: as above; type: cell-based; details: agent combined with MLN4924, vehicle PBS, 72 hr
Description: as §5, §6

KNS-62 = assay: as above; type: cell-based; details: agent combined with MLN4924, vehicle PBS, 72 hr
Description: as §5, §6

LUDLU-1 = assay: as above; type: cell-based; details: agent combined with MLN4924, vehicle PBS, 72 hr
Description: as §5, §6

SW900 = assay: as above; type: cell-based; details: agent combined with MLN4924, vehicle PBS, 72 hr
Description: as §5, §6

NCI-H2170 = assay: as above; type: cell-based; details: agent combined with MLN4924, vehicle PBS, 72 hr
Description: as §5, §6

RERF-LC-SQ1 = assay: as above; type: cell-based; details: agent combined with MLN4924, vehicle PBS, 72 hr
Description: as §5, §6

NCI-H520 = assay: as above; type: cell-based; details: agent combined with MLN4924, vehicle PBS, 72 hr
Description: as §5, §6

CHAGO-K-1 = assay: as above; type: cell-based; details: agent combined with MLN4924, vehicle PBS, 72 hr
Description: as §5, §6

LC-1-SQ = assay: as above; type: cell-based; details: agent combined with MLN4924, vehicle PBS, 72 hr
Description: as §5, §6

HARA = assay: as above; type: cell-based; details: agent combined with MLN4924, vehicle PBS, 72 hr
Description: as §5, §6

VMRC-LCP = assay: as above; type: cell-based; details: agent combined with MLN4924, vehicle PBS, 72 hr
Description: as §5, §6

NCI-H1703 = assay: as above; type: cell-based; details: agent combined with MLN4924, vehicle PBS, 72 hr
Description: as §5, §6

NCI-H596 = assay: as above; type: cell-based; details: agent combined with MLN4924, vehicle PBS, 72 hr
Description: as §5, §6

SW1573 = assay: as above; type: cell-based; details: agent combined with MLN4924, vehicle PBS, 72 hr
Description: as §5, §6

EBC-1 = assay: as above; type: cell-based; details: agent combined with MLN4924, vehicle PBS, 72 hr
Description: as §5, §6

A549 = assay: as above; details: agent combined with MLN4924, vehicle PBS, 72 hr
Method: as §7, §8, §9, §10, §11, §12, §13, §14, §15

NCI-H510 = assay: as above; details: agent combined with MLN4924, vehicle DMSO, 96 hr
Method: as §7, §8, §9, §10, §11, §12, §13, §14, §15

SMILES: N.N.O=C([O-])C1(C(=O)[O-])CCC1.[Pt+2] [carboplatin]
- Combination Index (HCT116): 0.71 ± 0.03
- Nonlinear Blending (HCT116): 19 ± 2
- Combination Index (NCI-H82): 0.65 ± 0.1
- Nonlinear Blending (NCI-H82): 12 ± 2
- average tumor volume day 21 (LXFE409 xenograft model): 204.4 mm^3
- Combination Index (NCI-H526): 1.02 ± 0.1
- Nonlinear Blending (NCI-H526): 0 ± 2
- Combination Index (NCI-H209): 1.00 ± 0.06
- Nonlinear Blending (NCI-H209): −1 ± 1
- average tumor volume day 21 (LU1143 xenograft model): 658.7 mm^3
- average tumor volume day 21 (NCI-H69 xenograft model; 50 mg/kg carboplatin QW IP): 501.3 mm^3
- tumor growth during the treatment period (in words) (NCI-H69 xenograft model; FIG. 3, MLN4924 SC 120 mg/kg BID Q3Dx2/week, carboplatin 50 mg/kg IP QW, single agents or their combination): inhibited tumor growth compared to the control vehicle group
- Combination Index (SK-MES-1): 1.32 ± 0.06
- Nonlinear Blending (SK-MES-1): −22 ± 4
- Combination Index (NCI-H1299): 1.10 ± 0.05
- Nonlinear Blending (NCI-H1299): −8 ± 2
- Combination Index (LK-2): 0.66 ± 0.05
- Nonlinear Blending (LK-2): 15 ± 2
- Combination Index (NCI-H69): 1.18 ± 0.09
- Nonlinear Blending (NCI-H69): −5 ± 1
- Combination Index (CALU-1): 0.78 ± 0.05
- Nonlinear Blending (CALU-1): 11 ± 6
- Combination Index (KNS-62): 0.82 ± 0.1
- Nonlinear Blending (KNS-62): 10 ± 5
- Combination Index (LUDLU-1): 0.84 ± 0.2
- Nonlinear Blending (LUDLU-1): 5 ± 5
- Combination Index (SW900): 0.85 ± 0.06
- Nonlinear Blending (SW900): 10 ± 1
- Combination Index (NCI-H2170): 1.38 ± 0.1
- Nonlinear Blending (NCI-H2170): −19 ± 7
- Combination Index (RERF-LC-SQ1): 0.77 ± 0.06
- Nonlinear Blending (RERF-LC-SQ1): 11 ± 1
- Nonlinear Blending (NCI-H520): 9 ± 20
- Combination Index (CHAGO-K-1): 0.88 ± 0.03
- Nonlinear Blending (CHAGO-K-1): 11 ± 1
- Combination Index (LC-1-SQ): 0.51 ± 0.04
- Nonlinear Blending (LC-1-SQ): 28 ± 2
- Combination Index (HARA): 1.06 ± 0.1
- Nonlinear Blending (HARA): −3 ± 10
- Combination Index (VMRC-LCP): 1.00 ± 0.04
- Nonlinear Blending (VMRC-LCP): −3 ± 1
- Combination Index (NCI-H1703): 1.31 ± 0.02
- Nonlinear Blending (NCI-H1703): −23 ± 2
- Combination Index (NCI-H596): 0.59 ± 0.1
- Nonlinear Blending (NCI-H596): 10 ± 7
- Nonlinear Blending (SW1573): 6 ± 5
- Combination Index (EBC-1): 1.24 ± 0.06
- Nonlinear Blending (EBC-1): −7 ± 1
- Combination Index (A549): 0.72 ± 0.05
- Nonlinear Blending (A549): 8 ± 4
- Combination Index (NCI-H510): 0.81 ± 0.08
- Nonlinear Blending (NCI-H510): 5 ± 2
